Experiment [1] concerns panel of 290 distinct kinases (321 in the larger panel), excluding mutant variants. To be noted: kinase selectivity score, class symbols.
A further experiment concerns the target mutant BRAF kinase (Homo sapiens (Human), UniProt P15056, V600E). As to conditions: read-out: BRAF V600E Kd, class symbols.
The mark [2] stands for this setting: value marked * (larger kinase panel).

pKd: −log10 of the molar value. Structures can show the parent of a compound that is named as a salt. Where two headings read alike, the source gives them in different places. Where only a bound is given, the exact number is not on record here.

Chain of mutant BRAF kinase (P15056 whole entry V600E): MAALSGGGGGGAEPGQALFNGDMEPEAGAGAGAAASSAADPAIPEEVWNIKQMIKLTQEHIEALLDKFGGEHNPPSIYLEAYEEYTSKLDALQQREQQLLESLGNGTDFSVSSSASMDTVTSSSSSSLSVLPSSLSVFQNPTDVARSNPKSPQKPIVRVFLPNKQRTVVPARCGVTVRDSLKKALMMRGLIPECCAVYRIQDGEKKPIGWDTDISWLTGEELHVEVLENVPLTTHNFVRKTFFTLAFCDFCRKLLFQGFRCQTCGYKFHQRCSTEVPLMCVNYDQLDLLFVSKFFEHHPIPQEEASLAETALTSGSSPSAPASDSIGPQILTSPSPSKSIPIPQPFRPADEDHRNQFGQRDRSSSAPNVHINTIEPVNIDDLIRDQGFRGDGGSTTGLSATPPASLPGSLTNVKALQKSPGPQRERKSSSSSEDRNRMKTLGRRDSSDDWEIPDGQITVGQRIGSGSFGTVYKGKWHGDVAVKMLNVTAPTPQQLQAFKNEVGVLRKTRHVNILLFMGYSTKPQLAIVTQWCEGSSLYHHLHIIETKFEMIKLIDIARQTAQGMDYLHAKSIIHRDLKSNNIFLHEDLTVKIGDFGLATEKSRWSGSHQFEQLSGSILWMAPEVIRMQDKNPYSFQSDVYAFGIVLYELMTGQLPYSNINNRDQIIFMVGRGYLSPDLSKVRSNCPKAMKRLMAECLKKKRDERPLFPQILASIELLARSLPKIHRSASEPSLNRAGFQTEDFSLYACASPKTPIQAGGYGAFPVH

The term pKd denotes the Kd on a negative log10 scale, so that one unit is a factor of ten. Turning to `COc1cc2ncnc(Oc3cccc(NC(=O)Nc4cc(C(C)(C)C)on4)c3)c2cc1OCCCN1CCCCC1` [Ex 23, 1-(5-tert-butylisoxazol-3-yl)-3-(3-(7-methoxy-6-(3-(piperidin-1-yl)propoxy)quinazolin-4-yloxy)phenyl)urea], the S35 result in experiment [1] (290 distinct kinases) was “D (D > 0.40)”. For the same compound, the pKd on mutant BRAF kinase was > 6.60.

In the case of `CC(C)(C)c1cc(NC(=O)Nc2cccc(Oc3ncnc4cc5c(cc34)OCCO5)c2)no1` [Ex 14, 1-(5-tert-butylisoxazol-3-yl)-3-[3-(7,8-dihydro-[1,4]dioxino[2,3-g]quinazolin-4-yloxy)phenyl]urea hydrochloride], the S35 result in experiment [1] (290 distinct kinases) is listed as “C (0.20 < C ≦ 0.40)”. Further, the pKd on mutant BRAF kinase is > 6.60.

As for `COc1cc2c(Sc3cccc(NC(=O)Nc4cc(C(C)(C)C)on4)c3)ncnc2cc1OCCN1CCOCC1` [Ex 79, (1-(5-tert-butylisoxazol-3-yl)-3-(3-(6-methoxy-7-(2-morpholinoethoxy)quinazolin-4-ylthio)phenyl)urea)], the S35 result in experiment [1] (290 distinct kinases) is recorded as “D (D > 0.40)”. Further, the pKd at mutant BRAF kinase is > 6.60.

Take `COc1cc2c(Oc3cccc(NC(=O)Nc4cc(C(C)(C)C)on4)c3)ncnc2cc1OCCN1CCS(=O)(=O)CC1` [Ex 39, 1-(5-tert-butyl-isoxazol-3-yl)-3-(3-{7-[2-(1,1-dioxo-116-thiomorpholin-4-yl)-ethoxy]-6-methoxy-quinazolin-4-yloxy}-phenyl)-urea]: the S35 result in experiment [1] (290 distinct kinases) is “C (0.20 < C ≦ 0.40)”. The negative-log Kd (pKd) on mutant BRAF kinase is > 6.60.

On to `COc1cc2ncnc(Sc3cccc(NC(=O)Nc4cc(C(C)(C)C)on4)c3)c2cc1OCCN1CCN(CCO)CC1` [Ex 68, 1-(5-tert-butylisoxazol-3-yl)-3-(3-(6-(2-(4-(2-hydroxyethyl)piperazin-1-yl)ethoxy)-7-methoxyquinazolin-4-ylthio)phenyl)urea], for which the S35 entry in experiment [1] (290 distinct kinases) is reported as “C (0.20 < C ≦ 0.40)”. In addition, the pKd on mutant BRAF kinase was > 6.60.

As for `COc1cc2c(Sc3cccc(NC(=O)Nc4cc(C(C)(C)C)on4)c3)ncnc2cc1OCCCN1CCN(S(C)(=O)=O)CC1` [Ex 77, 1-(5-tert-butylisoxazol-3-yl)-3-(3-(6-methoxy-7-(3-(4-(methylsulfonyl)piperazin-1-yl)propoxy)quinazolin-4-ylthio)phenyl)urea], the S35 entry in experiment [1] (290 distinct kinases) is reported as “D (D > 0.40)”. Further, the pKd at mutant BRAF kinase was > 6.60.

For `COCCOc1cc2ncnc(Oc3cccc(NC(=O)Nc4cc(C(C)(C)C)on4)c3)c2cc1OC` [Ex 7, 1-(5-tert-Butylisoxazol-3-yl)-3-{3-[6-methoxy-7-(2-methoxyethoxy)quinazolin-4-yloxy]phenyl}urea hydrochloride], in experiment [1] (290 distinct kinases), the S35 entry is “D (D > 0.40)”. Also, the pKd on mutant BRAF kinase was > 6.60.

Take `COc1cc2ncnc(Sc3cccc(NC(=O)Nc4cc(C(C)(C)C)on4)c3)c2cc1OC` [Ex 46, 1-(5-tert-butylisoxazol-3-yl)-3-(3-(6,7-dimethoxyquinazolin-4-ylthio)phenyl)urea]: the S35 entry in experiment [1] (290 distinct kinases) is “C (0.20 < C ≦ 0.40)”. The pKd at mutant BRAF kinase was > 6.60.

With `COc1cc2ncnc(Oc3cccc(NC(=O)Nc4cc(C(C)(C)C)on4)c3)c2cc1OCCCN1CCN(C)CC1` [Ex 21, 1-(5-tert-butylisoxazol-3-yl)-3-(3-(7-methoxy-6-(3-(4-methylpiperazin-1-yl)propoxy)quinazolin-4-yloxy)phenyl)urea], the S35 entry in experiment [1] (290 distinct kinases) is reported as “D (D > 0.40)”. For the same compound, on mutant BRAF kinase, the pKd is > 6.60.

In the case of `COc1cc2ncnc(Oc3cccc(NC(=O)Nc4cc(C(C)(C)C)on4)c3)c2cc1OCCN1CCN(C)CC1` [Ex 18, 1-(5-tert-butylisoxazol-3-yl)-3-(3-(7-methoxy-6-(2-(4-methylpiperazin-1-yl)ethoxy)quinazolin-4-yloxy)phenyl)urea], in experiment [1] (290 distinct kinases), the S35 entry is “D (D > 0.40)”. Besides, the negative logarithm of the Kd (pKd) at mutant BRAF kinase is > 6.60.

For the compound `COc1cc2ncnc(Sc3cccc(NC(=O)Nc4cc(C(C)(C)C)on4)c3)c2cc1OCCCN1CCN(C)CC1` [Ex 59, 1-(5-tert-butylisoxazol-3-yl)-3-(3-(7-methoxy-6-(3-(4-methylpiperazin-1-yl)propoxy)quinazolin-4-ylthio)phenyl)urea], the S35 entry in experiment [1] (290 distinct kinases) is “D (D > 0.40)”. The pKd at mutant BRAF kinase was > 6.60.

On to `COc1cc2c(Oc3cccc(NC(=O)Nc4cc(C(C)(C)C)on4)c3)ncnc2cc1O[C@H]1CCN(C)C1` [Ex 97, (S)-1-(5-tert-butylisoxazol-3-yl)-3-(3-(6-methoxy-7-(1-methylpyrrolidin-3-yloxy)quinazolin-4-yloxy)phenyl)urea mono acetate], for which, in experiment [1] (290 distinct kinases), the S35 entry is given as “C (0.20 < C ≦ 0.40)”. Also, the pKd on mutant BRAF kinase was > 6.60.

Take `COc1cc2c(Sc3cccc(NC(=O)Nc4cc(C(C)(C)C)on4)c3)ncnc2cc1OCCCN1CCCCC1` [Ex 76, 1-(5-tert-butylisoxazol-3-yl)-3-(3-(6-methoxy-7-(3-(piperidin-1-yl)propoxy)quinazolin-4-ylthio)phenyl)urea]: the S35 entry in experiment [1] (290 distinct kinases) is “D (D > 0.40)”. The pKd on mutant BRAF kinase is > 6.60.

For the compound `COc1cc2c(Sc3cccc(NC(=O)Nc4cc(C(C)(C)C)on4)c3)ncnc2cc1OCCCN1CCN(CCO)CC1` [Ex 75, 1-(5-tert-butylisoxazol-3-yl)-3-(3-(7-(3-(4-(2-hydroxyethyl)piperazin-1-yl)propoxy)-6-methoxyquinazolin-4-ylthio)phenyl)urea], in experiment [1] (290 distinct kinases), the S35 entry is “D (D > 0.40)”. Moreover, the negative logarithm of the Kd (pKd) on mutant BRAF kinase is > 6.60.

Regarding `COc1cc2c(Oc3cccc(NC(=O)Nc4cc(C(C)(C)C)on4)c3)ncnc2cc1OCCN1CCC(CO)CC1` [Ex 37, 1-(5-tert-butyl-isoxazol-3-yl)-3-(3-{7-[2-(4-hydroxymethyl-piperidin-1-yl)-ethoxy]-6-methoxy-quinazolin-4-yloxy}-phenyl)-urea], the S35 entry in experiment [1] (290 distinct kinases) is recorded as “C (0.20 < C ≦ 0.40)”. Besides, the pKd at mutant BRAF kinase is > 6.60.

In the case of `COCCOc1cc2c(Oc3cccc(NC(=O)Nc4cc(C(C)(C)C)on4)c3)ncnc2cc1OC` [Ex 15, 1-(5-tert-butylisoxazol-3-yl)-3-{3-[7-methoxy-6-(2-methoxyethoxy)quinazolin-4-yloxy]phenyl}urea hydrochloride], the S35 entry in experiment [1] (290 distinct kinases) was “C (0.20 < C ≦ 0.40)”. Further, the negative-log Kd (pKd) on mutant BRAF kinase is > 6.60.

`COc1cc2ncnc(Oc3cccc(NC(=O)Nc4ccc(Cl)c(C(F)(F)F)c4)c3)c2cc1OC` [Ex 176, 1-(4-chloro-3-(trifluoromethyl)phenyl)-3-(3-(6,7-dimethoxyquinazolin-4-yloxy)phenyl)urea]: the S35 result in experiment [1] (290 distinct kinases) is given as “C (0.20 < C ≦ 0.40)”. In addition, the pKd on mutant BRAF kinase was > 6.60.

For the compound `COCCOc1cc2ncnc(Oc3cccc(NC(=O)Nc4cc(C(C)(C)C)on4)c3)c2cc1OCCOC` [Ex 12, 1-{3-[6,7-bis(2-methoxyethoxy)quinazolin-4-yloxy]phenyl}-3-(5-tert-butylisoxazol-3-yl)urea hydrochloride], the S35 entry in experiment [1] (290 distinct kinases) is listed as “C (0.20 < C ≦ 0.40)”. Besides, the pKd at mutant BRAF kinase is > 6.60.

On to `COCCOc1cc2ncnc(Oc3cccc(NC(=O)Nc4cccc(C(C)(C)C)c4)c3)c2cc1OC` [Ex 119, 1-(3-tert-butylphenyl)-3-(3-(6-methoxy-7-(2-methoxyethoxy)quinazolin-4-yloxy)phenyl)urea], for which, in experiment [1] (setting [2]), the S35 entry is on record as “C* (0.20 < C ≦ 0.40)”. Also, the negative-log Kd (pKd) on mutant BRAF kinase is > 6.60.

Turning to `COc1cc2c(Oc3cccc(NC(=O)Nc4cc(C(C)(C)C)on4)c3)ncnc2cc1OCCCN1CCC(O)C1` (stereo not drawn) [Ex 31, 1-(5-tert-butyl-isoxazol-3-yl)-3-(3-{7-[3-(3-hydroxy-pyrrolidin-1-yl)-propoxy]-6-methoxy-quinazolin-4-yloxy}-phenyl)-urea], the S35 result in experiment [1] (290 distinct kinases) is “D (D > 0.40)”. The negative-log Kd (pKd) at mutant BRAF kinase is > 6.60.

Consider `COc1cc2ncnc(Oc3cccc(NC(=O)Nc4cc(C(C)(C)C)on4)c3)c2cc1OCCCN1CCC(CO)CC1` [Ex 24, 1-(5-tert-butylisoxazol-3-yl)-3-(3-(6-(3-(4-(hydroxymethyl)piperidin-1-yl)propoxy)-7-methoxyquinazolin-4-yloxy)phenyl)urea], for which the S35 entry in experiment [1] (290 distinct kinases) is given as “D (D > 0.40)”. Further, at mutant BRAF kinase, the negative-log Kd (pKd) is > 6.60.

With `COc1cc2c(Oc3cccc(NC(=O)Nc4cc(C(C)(C)C)on4)c3)ncnc2cc1O` [Ex 95, 1-(5-tert-butylisoxazol-3-yl)-3-(3-(7-hydroxy-6-methoxyquinazolin-4-yloxy)phenyl)urea], in experiment [1] (290 distinct kinases), the S35 entry is “C (0.20 < C ≦ 0.40)”. Further, the negative logarithm of the Kd (pKd) on mutant BRAF kinase was > 6.60.

As to `COc1cc2ncnc(Oc3cccc(NC(=O)Nc4cc(C(C)(C)C)on4)c3)c2cc1OCCN1CCS(=O)(=O)CC1` [Ex 91, 1-(5-tert-butyl-isoxazol-3-yl)-3-(3-{6-[2-(1,1-dioxo-thiomorpholin-4-yl)-ethoxy]-7-methoxy-quinazolin-4-yloxy}-phenyl)-urea], the S35 result in experiment [1] (290 distinct kinases) is “C (0.20 < C ≦ 0.40)”. Moreover, the negative logarithm of the Kd (pKd) at mutant BRAF kinase is > 6.60.

Regarding `CCOc1cc2c(Sc3cccc(NC(=O)Nc4cc(C(C)(C)C)on4)c3)ncnc2cc1OC` [Ex 56, 1-(5-tert-butylisoxazol-3-yl)-3-(3-(6-ethoxy-7-methoxyquinazolin-4-ylthio)phenyl)urea], the S35 result in experiment [1] (290 distinct kinases) is “B (0.10 < B ≦ 0.20)”. For the same compound, on mutant BRAF kinase, the negative-log Kd (pKd) was > 6.60.

In the case of `CCOc1cccc(NC(=O)Nc2cccc(Oc3ncnc4cc(OC)c(OC)cc34)c2)c1` [Ex 179, 1-(3-(6,7-dimethoxyquinazolin-4-yloxy)phenyl)-3-(3-ethoxyphenyl)urea], the S35 result in experiment [1] (setting [2]) is given as “B* (0.10 < B ≦ 0.20)”. Besides, the pKd on mutant BRAF kinase was > 6.60.

Turning to `COc1cc2ncnc(Oc3cccc(NC(=O)Nc4cc(C(C)(C)C)on4)c3)c2cc1OCCN1CCN(CCO)CC1` [Ex 19, 1-(5-tert-butylisoxazol-3-yl)-3-(3-(6-(2-(4-(2-hydroxyethyl)piperazin-1-yl)ethoxy)-7-methoxyquinazolin-4-yloxy)phenyl)urea], in experiment [1] (290 distinct kinases), the S35 result was “D (D > 0.40)”. Moreover, on mutant BRAF kinase, the pKd is > 6.60.

Take `COc1cc2ncnc(Sc3cccc(NC(=O)Nc4cc(C(C)(C)C)on4)c3)c2cc1OCCN1CCN(S(C)(=O)=O)CC1` [Ex 69, 1-(5-tert-butylisoxazol-3-yl)-3-(3-(7-methoxy-6-(2-(4-(methylsulfonyl)piperazin-1-yl)ethoxy)quinazolin-4-ylthio)phenyl)urea]: the S35 result in experiment [1] (290 distinct kinases) is given as “C (0.20 < C ≦ 0.40)”. For the same compound, the pKd at mutant BRAF kinase is > 6.60.

The values above are taken from patent US9730937B2, “RAF kinase modulator compounds and methods of use thereof” (AMBIT BIOSCIENCES CORPORATION, priority 2008, dated 2017).
